ChEMBL document CHEMBL1137682, “Synthesis, characterization and structure-activity relationship analysis of novel depsides as potential antibacterials” (2009)
Values after ≈ are worked out from the molar mass of the structure shown.

What was measured:
Type in all cases: functional
Staphylococcus aureus = assay: Antibacterial activity against Staphylococcus aureus ATCC 6538 after 24 hrs by MTT assay; conditions: ATCC 6538, 24 h
Bacillus subtilis = assay: Antibacterial activity against Bacillus subtilis ATCC 6633 after 24 hrs by MTT assay; conditions: ATCC 6633, 24 h
Pseudomonas aeruginosa = assay: Antibacterial activity against sPseudomonas aeruginosa ATCC 13525 after 24 hrs by MTT assay; conditions: ATCC 13525, 24 h
Enterobacter cloacae = assay: Antibacterial activity against Enterobacter cloacae ATCC 13047 after 24 hrs by MTT assay; conditions: ATCC 13047, 24 h
Enterococcus faecalis = assay: microbe, parasite or virus in culture; conditions: ATCC 9790, 24 h
Escherichia coli = assay: Antibacterial activity against Escherichia coli ATCC 35218 after 24 hrs by MTT assay; conditions: ATCC 35218, 24 h

Row | Structure (SMILES) | MIC (Staphylococcus aureus) [µg/mL] | MIC (Bacillus subtilis) [µg/mL] | MIC (Pseudomonas aeruginosa) [µg/mL] | MIC (Enterobacter cloacae) [µg/mL] | MIC (Enterococcus faecalis) [µg/mL] | MIC (Escherichia coli) [µg/mL]
1 | CCOC(=O)Cc1ccccc1OC(=O)Cc1ccc(F)cc1 | 25 (≈ 79 µM) | 12.5 (≈ 39.5 µM) | > 50 | 12.5 (≈ 39.5 µM) | 6.25 (≈ 19.8 µM) | 25 (≈ 79 µM)
2 | COC(=O)Cc1ccccc1O | 6.25 (≈ 37.6 µM) | 12.5 (≈ 75.2 µM) | 25 (≈ 150 µM) | 6.25 (≈ 37.6 µM) | 12.5 (≈ 75.2 µM) | 12.5 (≈ 75.2 µM)
3 | COC(=O)Cc1ccccc1OC(=O)c1ccc(C)cc1 | 25 (≈ 87.9 µM) | 12.5 (≈ 44 µM) | 12.5 (≈ 44 µM) | 6.25 (≈ 22 µM) | > 50 | 3.12 (≈ 11 µM)
4 | CCOC(=O)Cc1ccccc1O | 12.5 (≈ 69.4 µM) | 6.25 (≈ 34.7 µM) | 12.5 (≈ 69.4 µM) | 12.5 (≈ 69.4 µM) | 25 (≈ 139 µM) | 25 (≈ 139 µM)
5 | COC(=O)Cc1ccccc1OC(=O)Cc1ccc(F)cc1 | 12.5 (≈ 41.3 µM) | 6.25 (≈ 20.7 µM) | 25 (≈ 82.7 µM) | 6.25 (≈ 20.7 µM) | 12.5 (≈ 41.3 µM) | 25 (≈ 82.7 µM)
6 | COC(=O)Cc1ccccc1OC(=O)Cc1ccc(Cl)cc1 | 3.12 (≈ 9.8 µM) | 12.5 (≈ 39.2 µM) | > 50 | 12.5 (≈ 39.2 µM) | 25 (≈ 78.4 µM) | 6.25 (≈ 19.6 µM)
7 | COC(=O)Cc1ccccc1OC(=O)Cc1ccc(Br)cc1 | 6.25 (≈ 17.2 µM) | 6.25 (≈ 17.2 µM) | 25 (≈ 68.8 µM) | 3.12 (≈ 8.6 µM) | 6.25 (≈ 17.2 µM) | > 50
8 | CCOc1ccc(CC(=O)Oc2ccccc2CC(=O)OC)cc1OCC | 1.56 (≈ 4.19 µM) | > 50 | 3.12 (≈ 8.39 µM) | 3.12 (≈ 8.39 µM) | 3.12 (≈ 8.39 µM) | 1.56 (≈ 4.19 µM)
9 | COC(=O)Cc1ccccc1OC(=O)c1cccc([N+](=O)[O-])c1 | 1.56 (≈ 4.95 µM) | 0.78 (≈ 2.47 µM) | 6.25 (≈ 19.8 µM) | 12.5 (≈ 39.6 µM) | 1.56 (≈ 4.95 µM) | 3.12 (≈ 9.91 µM)
10 | COC(=O)Cc1ccccc1OC(=O)c1ccccc1Cl | 3.12 (≈ 10.3 µM) | > 50 | > 50 | > 50 | 25 (≈ 82 µM) | 25 (≈ 82 µM)
11 | COC(=O)Cc1ccccc1OC(=O)Cc1ccc(OC)c(OC)c1 | > 50 | 25 (≈ 72.6 µM) | 6.25 (≈ 18.1 µM) | 6.25 (≈ 18.1 µM) | > 50 | > 50
12 | COC(=O)Cc1ccccc1OC(=O)Cc1cccc(Br)c1 | > 50 | 1.56 (≈ 4.3 µM) | 25 (≈ 68.8 µM) | > 50 | 25 (≈ 68.8 µM) | 6.25 (≈ 17.2 µM)
13 | COC(=O)Cc1ccccc1OC(=O)c1ccc(Cl)cc1 | > 50 | 25 (≈ 82 µM) | 25 (≈ 82 µM) | 25 (≈ 82 µM) | 12.5 (≈ 41 µM) | > 50
14 | COC(=O)Cc1ccccc1OC(=O)c1cc(OC)cc(OC)c1 | > 50 | > 50 | 6.25 (≈ 18.9 µM) | > 50 | > 50 | 25 (≈ 75.7 µM)
15 | CCOC(=O)Cc1ccccc1OC(=O)Cc1ccc(OC)c(OC)c1 | 25 (≈ 69.8 µM) | 12.5 (≈ 34.9 µM) | 12.5 (≈ 34.9 µM) | 6.25 (≈ 17.4 µM) | > 50 | > 50
16 | CCOC(=O)Cc1ccccc1OC(=O)Cc1ccc(OCC)c(OCC)c1 | 3.12 (≈ 8.09 µM) | 12.5 (≈ 32.3 µM) | 3.12 (≈ 8.09 µM) | 3.12 (≈ 8.09 µM) | 1.56 (≈ 4.04 µM) | 1.56 (≈ 4.04 µM)
17 | CCOC(=O)Cc1ccccc1OC(=O)c1ccc(C)cc1 | > 50 | 25 (≈ 83.8 µM) | 12.5 (≈ 41.9 µM) | 6.25 (≈ 20.9 µM) | > 50 | 3.12 (≈ 10.5 µM)

Row | Structure (SMILES) | MIC (Staphylococcus aureus) [µg/mL] | MIC (Bacillus subtilis) [µg/mL] | MIC (Pseudomonas aeruginosa) [µg/mL] | MIC (Enterobacter cloacae) [µg/mL] | MIC (Enterococcus faecalis) [µg/mL] | MIC (Escherichia coli) [µg/mL]
18 | CCOC(=O)Cc1ccccc1OC(=O)c1cccc([N+](=O)[O-])c1 | 3.12 (≈ 9.49 µM) | 0.78 (≈ 2.37 µM) | 6.25 (≈ 19 µM) | 6.25 (≈ 19 µM) | 1.56 (≈ 4.74 µM) | 3.12 (≈ 9.49 µM)
19 | CCOC(=O)Cc1ccccc1OC(=O)Cc1cccc(Br)c1 | > 50 | 1.56 (≈ 4.14 µM) | 25 (≈ 66.3 µM) | > 50 | > 50 | 6.25 (≈ 16.6 µM)
20 | CCOC(=O)Cc1ccccc1OC(=O)Cc1cccc(OC)c1 | > 50 | > 50 | 6.25 (≈ 19 µM) | > 50 | 12.5 (≈ 38.1 µM) | 25 (≈ 76.1 µM)
21 | CCOC(=O)Cc1ccccc1OC(=O)c1cc(OC)cc(OC)c1 | > 50 | > 50 | 6.25 (≈ 18.1 µM) | 25 (≈ 72.6 µM) | 25 (≈ 72.6 µM) | > 50
22 | CCOC(=O)Cc1ccccc1OC(=O)Cc1ccc(Br)cc1 | 12.5 (≈ 33.1 µM) | 12.5 (≈ 33.1 µM) | 25 (≈ 66.3 µM) | 3.12 (≈ 8.28 µM) | > 50 | > 50
23 | CCOC(=O)Cc1ccccc1OC(=O)Cc1cccc(Cl)c1 | 6.25 (≈ 18.8 µM) | 3.12 (≈ 9.39 µM) | > 50 | 25 (≈ 75.1 µM) | 6.25 (≈ 18.8 µM) | 6.25 (≈ 18.8 µM)
24 | CCOC(=O)Cc1ccccc1OC(=O)c1ccccc1Cl | 6.25 (≈ 19.6 µM) | > 50 | 25 (≈ 78.4 µM) | > 50 | > 50 | 6.25 (≈ 19.6 µM)
25 | COC(=O)Cc1ccccc1OC(=O)Cc1cccc(Cl)c1 | 3.12 (≈ 9.8 µM) | 3.12 (≈ 9.8 µM) | 12.5 (≈ 39.2 µM) | 25 (≈ 78.4 µM) | 12.5 (≈ 39.2 µM) | > 50
26 | COC(=O)Cc1ccccc1OC(=O)Cc1cccc(OC)c1 | 25 (≈ 79.5 µM) | > 50 | 6.25 (≈ 19.9 µM) | > 50 | > 50 | > 50
27 | CCOC(=O)Cc1ccccc1OC(=O)Cc1ccc(Cl)cc1 | 6.25 (≈ 18.8 µM) | 6.25 (≈ 18.8 µM) | 25 (≈ 75.1 µM) | 6.25 (≈ 18.8 µM) | 12.5 (≈ 37.6 µM) | > 50
28 | CCOC(=O)Cc1ccccc1OC(=O)c1ccc(Cl)cc1 | > 50 | 25 (≈ 78.4 µM) | > 50 | > 50 | 25 (≈ 78.4 µM) | > 50
29 | NC[C@H]1O[C@H](O[C@H]2[C@H](O)[C@@H](O[C@H]3O[C@H](CO)[C@@H](O)[C@H](N)[C@H]3O)[C@H](N)C[C@@H]2N)[C@H](N)[C@@H](O)[C@@H]1O [BEKANAMYCIN] | 1.56 (≈ 3.23 µM) | 0.39 (≈ 0.807 µM) | 3.12 (≈ 6.46 µM) | 1.56 (≈ 3.23 µM) | 3.12 (≈ 6.46 µM) | 3.12 (≈ 6.46 µM)
30 | COC(=O)c1ccc(O)cc1 [METHYLPARABEN] | 6.25 (≈ 41.1 µM) | 6.25 (≈ 41.1 µM) | 6.25 (≈ 41.1 µM) | 25 (≈ 164 µM) | 12.5 (≈ 82.2 µM) | 6.25 (≈ 41.1 µM)
31 | CC1(C)S[C@@H]2[C@H](NC(=O)Cc3ccccc3)C(=O)N2[C@H]1C(=O)O [PENICILLIN G] | 1.56 (≈ 4.67 µM) | 1.56 (≈ 4.67 µM) | 6.25 (≈ 18.7 µM) | 3.12 (≈ 9.35 µM) | 1.56 (≈ 4.67 µM) | 6.25 (≈ 18.7 µM)
32 | CN(C)[C@@H]1C(O)=C(C(N)=O)C(=O)[C@@]2(O)C(O)=C3C(=O)c4c(O)cccc4[C@@](C)(O)[C@H]3C[C@@H]12 [TETRACYCLINE] | 1.56 (≈ 3.51 µM) | 1.56 (≈ 3.51 µM) | 1.56 (≈ 3.51 µM) | 1.56 (≈ 3.51 µM) | 0.78 (≈ 1.76 µM) | 6.25 (≈ 14.1 µM)
33 | CN[C@H](CC(C)C)C(=O)N[C@H]1C(=O)N[C@@H](CC(N)=O)C(=O)N[C@H]2C(=O)N[C@H]3C(=O)N[C@H](C(=O)N[C@H](C(=O)O)c4cc(O)cc(O)c4-c4cc3ccc4O)[C@H](O)c3ccc(c(Cl)c3)Oc3cc2cc(c3O[C@@H]2O[C@H](CO)[C@@H](O)[C@H](O)[C@H]2O[C@H]2C[C@](C)(N)[C@H](O)[C@H](C)O2)Oc2ccc(cc2Cl)[C@H]1O.Cl [VANCOMYCIN HYDROCHLORIDE] | 0.78 | 0.39 | > 50 | > 50 | 1.56 | > 50
